Experimental data reported in ChEMBL document CHEMBL1201862, “PubChem BioAssay data set” (2004).
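In this assay, cells in 96-well plates receive the compound at five concentrations for 48 hours. Endpoints are linearly interpolated between the surrounding concentrations. GI50 marks 50% less growth.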 Calls of active or inactive are those of the source. Cut-off read from the data, not from the text of the source: active = GI50 up to about 1.1 µM and inactive = higher.

Experiments:
Assay in all cases: DTP human tumour cell line panel, 48 h
786-0 = test system: 786-0
BT-549 = test system: BT-549
CAKI-1 = test system: CAKI-1
HCT-116 = test system: HCT-116
HCT-15 = test system: HCT-15
HT-29 = test system: HT-29
Hs-578T = test system: Hs-578T
MDA-MB-231 = test system: MDA-MB-231
MOLT-4 = test system: MOLT-4
Malme-3M = test system: Malme-3M
NCI-H23 = test system: NCI-H23
OVCAR-5 = test system: OVCAR-5
OVCAR-8 = test system: OVCAR-8
RPMI-8226 = test system: RPMI-8226
RXF 393 = test system: RXF 393
SF-295 = test system: SF-295
SK-OV-3 = test system: SK-OV-3
SR = test system: SR
SW-620 = test system: SW-620
T47D = test system: T47D

Structure (SMILES) | GI50 (786-0) | GI50 (BT-549) | GI50 (CAKI-1) | GI50 (HCT-116) | GI50 (HCT-15) | GI50 (HT-29) | GI50 (Hs-578T) | GI50 (MDA-MB-231) | GI50 (MOLT-4) | GI50 (Malme-3M) | GI50 (NCI-H23) | GI50 (OVCAR-5) | GI50 (OVCAR-8) | GI50 (RPMI-8226) | GI50 (RXF 393) | GI50 (SF-295) | GI50 (SK-OV-3) | GI50 (SR) | GI50 (SW-620) | GI50 (T47D)
Nc1nc2c(C(=O)NCc3cccs3)nnn2c2cccc(Cl)c12 | > 100 µM (inactive) | > 100 µM (inactive) | > 100 µM (inactive) | > 100 µM (inactive) | > 100 µM | > 100 µM (inactive) | > 100 µM (inactive) | 60.1 µM (inactive) | 89.5 µM (inactive) | > 100 µM (inactive) | 87.3 µM (inactive) | 45.3 µM (inactive) | 84.7 µM (inactive) | 39.7 µM (inactive) | 59.4 µM (inactive) | > 100 µM (inactive) | > 100 µM (inactive) | 52.2 µM (inactive) | 91.2 µM (inactive) | 19.5 µM (inactive)
O=C(O)c1cc(C(=O)O)nc(C(=O)O)c1 | > 100 µM (inactive) | > 100 µM (inactive) | > 100 µM (inactive) | > 100 µM (inactive) | > 100 µM | > 100 µM (inactive) | > 100 µM (inactive) | > 100 µM (inactive) | > 100 µM (inactive) | > 100 µM (inactive) | > 100 µM (inactive) | > 100 µM (inactive) | > 100 µM (inactive) | > 100 µM (inactive) | > 100 µM (inactive) | > 100 µM (inactive) | > 100 µM (inactive) | > 100 µM (inactive) | > 100 µM (inactive) | > 100 µM (inactive)
Cc1c(C=C(C#N)C#N)c(=O)n(C)c(=O)n1C | > 100 µM (inactive) | > 100 µM (inactive) | > 100 µM (inactive) | > 100 µM (inactive) | > 100 µM | > 100 µM (inactive) | > 100 µM (inactive) | > 100 µM (inactive) | 95.3 µM (inactive) | > 100 µM (inactive) | > 100 µM (inactive) | > 100 µM (inactive) | > 100 µM (inactive) | 72.8 µM (inactive) | > 100 µM (inactive) | > 100 µM (inactive) | > 100 µM (inactive) | 32.9 µM (inactive) | > 100 µM (inactive) | > 100 µM (inactive)
CCOC(=O)c1ccc2nc(NC(=O)COC(=O)CSc3nc(C)cc(C)n3)sc2c1 | 97.1 µM (inactive) | 31.2 µM (inactive) | 26.3 µM (inactive) | 77.3 µM (inactive) | 46.6 µM | 66.2 µM (inactive) | 36 µM (inactive) | 66.4 µM (inactive) | 42.5 µM (inactive) | > 100 µM (inactive) | > 100 µM (inactive) | 20.4 µM (inactive) | 57.9 µM (inactive) | 53 µM (inactive) | 30.3 µM (inactive) | 36.6 µM (inactive) | 32.5 µM (inactive) | 52.7 µM (inactive) | > 100 µM (inactive) | 16.7 µM (inactive)
Clc1ccc(CCNCCNC2(c3cc4ccccc4s3)CCCCC2)cc1Cl | 1.95 µM (inactive) | 1.94 µM (inactive) | 1.87 µM (inactive) | 1.73 µM (inactive) | 1.92 µM | 1.83 µM (inactive) | 2.05 µM (inactive) | 1.78 µM (inactive) | 2.49 µM (inactive) | 1.88 µM (inactive) | 1.78 µM (inactive) | 1.85 µM (inactive) | 1.84 µM (inactive) | 2.34 µM (inactive) | 2.01 µM (inactive) | 1.59 µM (inactive) | 1.46 µM (inactive) | 2.02 µM (inactive) | 1.86 µM (inactive) | 1.95 µM (inactive)
O=S(=O)(O)c1ccc2c(/N=N/c3cccc4ccccc34)c(O)ccc2c1 | > 100 µM (inactive) | > 100 µM (inactive) | > 100 µM (inactive) | > 100 µM (inactive) | > 100 µM | > 100 µM (inactive) | > 100 µM (inactive) | > 100 µM (inactive) | > 100 µM (inactive) | > 100 µM (inactive) | > 100 µM (inactive) | > 100 µM (inactive) | > 100 µM (inactive) | > 100 µM (inactive) | > 100 µM (inactive) | 39.1 µM (inactive) | > 100 µM (inactive) | > 100 µM (inactive) | > 100 µM (inactive) | > 100 µM (inactive)
CCOC(=O)Nc1sc2c(c1C#N)CC(C)CC2 (stereo not given) | 10.1 µM (inactive) | 19.7 µM (inactive) | 21.8 µM (inactive) | 4 µM (inactive) | 2.75 µM | 3.06 µM (inactive) | 8.59 µM (inactive) | 5.56 µM (inactive) | 4.9 µM (inactive) | 8.55 µM (inactive) | 25.6 µM (inactive) | 16.3 µM (inactive) | 8.75 µM (inactive) | 4.86 µM (inactive) | 5.38 µM (inactive) | 11.6 µM (inactive) | 23 µM (inactive) | 1.4 µM (inactive) | 4.74 µM (inactive) | 10.5 µM (inactive)
CN(C)CCCc1c[nH]c2ccccc12 | > 100 µM (inactive) | > 100 µM (inactive) | > 100 µM (inactive) | > 100 µM (inactive) | > 100 µM | > 100 µM (inactive) | > 100 µM (inactive) | > 100 µM (inactive) | > 100 µM (inactive) | > 100 µM (inactive) | > 100 µM (inactive) | > 100 µM (inactive) | > 100 µM (inactive) | > 100 µM (inactive) | > 100 µM (inactive) | > 100 µM (inactive) | > 100 µM (inactive) | > 100 µM (inactive) | > 100 µM (inactive) | > 100 µM (inactive)
COc1c(O)c2ccccc2c2cc(O)ccc12 | 12.2 µM (inactive) | 2.43 µM (inactive) | 11.2 µM (inactive) | 4.53 µM (inactive) | 6.34 µM | 21 µM (inactive) | 17.4 µM (inactive) | 3.91 µM (inactive) | 8.61 µM (inactive) | 1.66 µM (inactive) | 2.86 µM (inactive) | 13.4 µM (inactive) | 3.88 µM (inactive) | 7.21 µM (inactive) | 9.93 µM (inactive) | 10 µM (inactive) | 20.5 µM (inactive) | 12.4 µM (inactive) | 3.18 µM (inactive) | 13.5 µM (inactive)
Cc1cc(S(=O)(=O)Nc2nnc3cc(C(F)(F)F)cc(C)n23)c(S)cc1Cl | > 80.5 µM (inactive) | > 35.2 µM (inactive) | 97.5 µM (inactive) | > 81.8 µM (inactive) | > 91.6 µM | > 100 µM (inactive) | > 72.4 µM (inactive) | > 83 µM (inactive) | > 100 µM (inactive) | > 100 µM (inactive) | > 100 µM (inactive) | > 84.9 µM (inactive) | > 100 µM (inactive) | > 100 µM (inactive) | > 100 µM (inactive) | 55.1 µM (inactive) | 38.3 µM (inactive) | > 100 µM (inactive) | > 100 µM (inactive) | > 100 µM (inactive)
O=C(N/N=C/c1c(-c2ccccc2)no[n+]1[O-])N1CCOCC1 | > 100 µM (inactive) | > 100 µM (inactive) | > 100 µM (inactive) | > 100 µM (inactive) | > 100 µM | > 100 µM (inactive) | > 100 µM (inactive) | > 100 µM (inactive) | 26.3 µM (inactive) | > 100 µM (inactive) | > 100 µM (inactive) | > 100 µM (inactive) | > 100 µM (inactive) | > 100 µM (inactive) | > 100 µM (inactive) | > 100 µM (inactive) | > 100 µM (inactive) | 0.264 µM (active) | > 100 µM (inactive) | > 100 µM (inactive)
CCn1c(=O)c2cn[nH]c2n(C)c1=O | > 100 µM (inactive) | > 100 µM (inactive) | > 100 µM (inactive) | > 100 µM (inactive) | > 100 µM | > 100 µM (inactive) | > 100 µM (inactive) | > 100 µM (inactive) | > 100 µM (inactive) | > 100 µM (inactive) | > 100 µM (inactive) | > 100 µM (inactive) | > 100 µM (inactive) | > 100 µM (inactive) | > 100 µM (inactive) | > 100 µM (inactive) | > 100 µM (inactive) | > 100 µM (inactive) | > 100 µM (inactive) | > 100 µM (inactive)
N#Cc1ccc(Oc2nc3ccccc3nc2C(=O)O)cc1 | > 100 µM (inactive) | > 100 µM (inactive) | > 100 µM (inactive) | > 100 µM (inactive) | > 100 µM | > 100 µM (inactive) | > 100 µM (inactive) | > 100 µM (inactive) | > 100 µM (inactive) | > 100 µM (inactive) | > 100 µM (inactive) | > 100 µM (inactive) | > 100 µM (inactive) | > 100 µM (inactive) | > 100 µM (inactive) | > 100 µM (inactive) | > 100 µM (inactive) | > 100 µM (inactive) | > 100 µM (inactive) | > 100 µM (inactive)
Cc1cc(=O)n2c3c(c4c(cc13)c(CN(C)C)cc(=O)n4C)OC2 | 15.9 µM (inactive) | 22 µM (inactive) | 13.1 µM (inactive) | 5.2 µM (inactive) | 6.15 µM | 8.13 µM (inactive) | 12.4 µM (inactive) | 33.3 µM (inactive) | 7.48 µM (inactive) | 12.4 µM (inactive) | 14 µM (inactive) | 37.9 µM (inactive) | 9.1 µM (inactive) | 25.2 µM (inactive) | 6.56 µM (inactive) | 16.9 µM (inactive) | 26.8 µM (inactive) | > 25.6 µM (inactive) | 9.98 µM (inactive) | 38.5 µM (inactive)
